Our source for the EC50 and Emax values is patent publication US20160318933A1, “FUSED PYRAZOLE DERIVATIVE” (SUMITOMO DAINIPPON PHARMA CO., LTD., priority 2013, published 2016).

The assay has as its target T1, human brain-derived dopamine D4 receptor (Homo sapiens, UniProt P21917).
T1 construct: expressed in transfected cells; host or cells: CHO (CHO-K1) or HEK293 cells
T1 sequence (P21917 1-419): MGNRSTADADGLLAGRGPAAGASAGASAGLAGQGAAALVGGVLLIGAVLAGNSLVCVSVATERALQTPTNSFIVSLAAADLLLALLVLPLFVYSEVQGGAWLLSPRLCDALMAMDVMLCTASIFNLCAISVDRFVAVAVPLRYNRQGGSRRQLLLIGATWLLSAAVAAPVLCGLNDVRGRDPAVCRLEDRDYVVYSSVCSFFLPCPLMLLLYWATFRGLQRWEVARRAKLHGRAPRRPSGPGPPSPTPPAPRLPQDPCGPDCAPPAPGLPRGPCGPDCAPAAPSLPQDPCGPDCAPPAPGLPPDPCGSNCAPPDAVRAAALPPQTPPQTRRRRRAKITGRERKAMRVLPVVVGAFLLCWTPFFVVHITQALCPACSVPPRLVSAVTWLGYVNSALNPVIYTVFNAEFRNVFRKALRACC
As to the kind of experiment: Agonistic activity in G protein dependent pathway of dopamine D4 receptor (aequorin intracellular calcium luminescence, FDSS). The assay is classed as cell-based. As to conditions: for EC50: concentration required to achieve a 50% response of Emax, CHO-K1 or HEK293 cells transfected with D4 receptor; for Emax: read-out: Maximal activity on D4 receptor (%). From the text: The G protein dependent pathway is a pathway for transmitting signals in cells via a second messenger by stimulating a G protein through the binding of guanosine triphosphate (GTP) to the G protein. When GPCRs are activated by the binding of a ligand, a G protein binds to the GPCRs, and thereby GTP binds to a Gα subunit that is one of G protein subunits and a Gγβ subunit is dissociated. The activated Gα subunit regulates intracellular cAMP levels by the activation or inhibition of an adenylate cyclase, and regulates intracellular calcium levels by the activation of phospholipase C to transmit signals in cells.
The agonistic activities of the present compounds in the G protein dependent pathway were evaluated on the basis of intracellular calcium levels as follows. CHO-K1 or HEK293 cell lines transfected with D4 receptor genes were seeded in a 384-well plate, and incubated in a CO2 incubator at 37° C. for 24 hours, and then a solution of the present compound in DMSO was added into cells preloaded with coelenterazine to measure the change in luminescent signals with a FDSS (Hamamatsu Photonics K.K.). […] The agonistic activity of the present compound was calculated according to the measured luminescent signals, as the maximal activity (Emax) of the present compound. EC50 value was calculated as the concentration of the present compound required to achieve a 50% response of Emax.
(In general: Calcium assays in cells follow changes in intracellular calcium, usually with a dye or a luminescent sensor.)

Consider `Cc1cccnc1-c1cc2n(n1)CCN(Cc1ccc3c(n1)CCCC3)C2` [Example 112], for which the half-maximal effective concentration (EC50) stood at 41 nM and the Emax was determined as 66%.
On the same counts, the results for `Cc1ccc(CN2CCn3nc(-c4ncccc4C)c(C)c3C2)nc1` [Example 114] are 64 nM and 93%.
Take `Cc1cccc(CN2CCn3nc(-c4ncccc4C)c(C)c3C2)n1` [Example 115]: the EC50 turned out to be 57 nM and the Emax came to 105%.
As for `Cc1cccnc1-c1nn2c(c1C)CN(Cc1ccc(C(F)(F)F)nc1)CC2` [Example 117], the EC50 is 241 nM and the Emax stood at 51%.
For `Cc1cccnc1-c1nn2c(c1C)CN(Cc1ccc(C(F)(F)F)cn1)CC2` [Example 118], in that order: 106 nM and 59%.
For `Cc1cnc(CN2CCn3nc(-c4ncccc4C)c(C)c3C2)cn1` [Example 119], the EC50 was found to be 145 nM and the Emax was determined as 71%.
`Cc1ccc(CN2CCn3nc(-c4ncccc4F)c(C)c3C2)nc1` [Example 120]: the EC50 was 23 nM and the Emax came to 98%.
For `Cc1ccc(CN2CCn3nc(-c4ncccc4F)c(C)c3C2)cn1` [Example 121], in that order: 46 nM and 84%.
In the case of `Cc1cccnc1-c1cc2n(n1)CCN(Cc1ccc(CF)nc1)C2` [Example 122], the EC50 stood at 50 nM and the Emax is 47%.
Regarding `Cc1cccnc1-c1cc2n(n1)CCN(Cc1ccc(CF)cn1)C2` [Example 123], the EC50 worked out at 32 nM and the Emax was found to be 65%.
As to `Cc1c(-c2ncccc2F)nn2c1CN(Cc1ccc3c(n1)CCCC3)CC2` [Example 124], the EC50 worked out at 47 nM and the Emax amounted to 76%.
Turning to `Cc1c(-c2ncccc2F)nn2c1CN(Cc1ccc3c(n1)CCC3)CC2` [Example 125], the EC50 worked out at 13 nM and the Emax worked out at 98%.
For the compound `Cc1cccc(CN2CCn3nc(-c4ncccc4F)c(C)c3C2)n1` [Example 126], the EC50 was 11 nM and the Emax stood at 91%.
Consider `Cc1c(-c2ncccc2F)nn2c1CN(Cc1ccc(C(F)(F)F)nc1)CC2` [Example 127], for which the EC50 was 56 nM and the Emax amounted to 89%.
For `Fc1cccnc1-c1cc2n(n1)CCN(Cc1ccc3c(n1)CCCC3)C2` [Example 130], in that order: 20 nM and 71%.
Consider `Cc1ccc(CN2CCn3nc(-c4ncccc4C)cc3C2)nc1C` [Example 131], for which the EC50 stood at 22 nM and the Emax was found to be 66%.
Consider `Cc1cccnc1-c1cc2n(n1)CCN(Cc1ccc(C(F)F)cn1)C2` [Example 133], for which the EC50 turned out to be 5 nM and the Emax turned out to be 47%.
With `Cc1c(-c2ccccn2)nn2c1CN(Cc1ccc(CF)nc1)CC2` [Example 134], the 50% effective concentration (EC50) came out at 42 nM and the Emax is 62%.
For the compound `Cc1cccnc1-c1cc2n(n1)CCN(Cc1ccc(F)c(C)n1)C2` [Example 135], the EC50 was 49 nM and the Emax amounted to 54%.
For `Cc1cccnc1-c1cc2n(n1)CCN(Cc1cc3c(cn1)OCCC3)C2` [Example 136], in that order: 63 nM and 52%.
Take `Cc1cccnc1-c1cc2n(n1)CCN(Cc1cccc(CF)n1)C2` [Example 137]: the EC50 came to 10 nM and the Emax stood at 82%.
For `Cc1cccnc1-c1cc2n(n1)CCN(Cc1ccc(C(F)F)nc1)C2` [Example 138], the EC50 came to 50 nM and the Emax is 49%.
Turning to `Cc1nc(CN2CCn3nc(-c4ncccc4C)cc3C2)cs1` [Example 139], the EC50 worked out at 0.6 nM and the Emax amounted to 56%.
In the case of `FC(F)(F)c1cccnc1-c1cc2n(n1)CCN(Cc1ccccc1)C2` [Example 140, 5-Benzyl-2-[3-(trifluoromethyl)pyridin-2-yl]-4,5,6,7-tetrahydropyrazolo[1,5-a]pyrazine], the EC50 came to 86 nM and the Emax was 85%.
For the compound `Cc1ncc(CN2CCn3nc(-c4ccccn4)c(F)c3C2)c(N)n1` [Example 141], the EC50 was found to be 87 nM and the Emax worked out at 56%.
Consider `Cc1ncc(CN2CCn3nc(-c4ccccn4)c(C)c3C2)c(N)n1` [Example 142], for which the EC50 stood at 68 nM and the Emax stood at 82%.
Regarding `Cc1cccnc1-c1cc2n(n1)CCN(Cc1ccc(C(F)(F)F)nc1)C2` [Example 143, 2-(3-Methylpyridin-2-yl)-5-{[6-(trifluoromethyl)pyridin-3-yl]methyl}-4,5,6,7-tetrahydropyrazolo[1,5-a]pyrazine], the EC50 is 80 nM and the Emax stood at 48%.
Regarding `Cc1cccnc1-c1cc2n(n1)CCN(Cc1cc3ccccc3[nH]1)C2` [Example 145], the EC50 worked out at 45 nM and the Emax came to 52%.
`Cc1cccnc1-c1cc2n(n1)CCN(Cc1cc3ccccc3n1C)C2` [Example 146]: the EC50 worked out at 90 nM and the Emax came to 48%.
`Cc1cccnc1-c1cc2n(n1)CCN(Cc1c[nH]c3ccccc13)C2` [Example 147]: the EC50 came to 33 nM and the Emax turned out to be 59%.
Regarding `Cc1cccnc1-c1cc2n(n1)CCN(Cc1cn(C)c3ccccc13)C2` [Example 148], the EC50 worked out at 47 nM and the Emax came to 71%.
For `Cc1cccnc1-c1cc2n(n1)CCN(Cc1c3ccccc3nn1C)C2` [Example 149], the EC50 turned out to be 107 nM and the Emax worked out at 53%.
`Cn1c(CN2CCn3nc(-c4ncccc4F)cc3C2)cc2ccccc21` [Example 150]: the EC50 was 38 nM and the Emax was found to be 71%.
`Nc1ncc(CN2CCn3nc(-c4ncccc4F)cc3C2)cn1` [Example 151]: the EC50 came to 103 nM and the Emax came to 69%.
Regarding `Cc1cccc(CN2CCn3nc(-c4ncccc4C(F)(F)F)cc3C2)n1` [Example 152], the EC50 stood at 107 nM and the Emax came to 74%.
Take `Cn1nc(CN2CCn3nc(-c4ncccc4C(F)(F)F)cc3C2)c2ccccc21` [Example 153]: the EC50 was determined as 94 nM and the Emax came out at 57%.
On the same counts, the results for `Cc1cnc(CN2CCn3nc(-c4ncccc4C)cc3C2)cn1` [Example 154] are 101 nM and 57%.
As to `Cc1cccc(CN2CCn3nc(-c4ncccc4C)cc3C2)n1` [Example 156], the EC50 turned out to be 55 nM and the Emax is 70%.
Take `Cc1cccnc1-c1cc2n(n1)CCN(Cc1ccc(CO)cn1)C2` [Example 157]: the EC50 is 127 nM and the Emax came to 50%.
On to `Cc1cccnc1-c1cc2n(n1)CCN(Cc1nn(C)c3ccccc13)C2` [Example 158], for which the EC50 is 65 nM and the Emax came out at 74%.
On to `Cc1cnc(CN2CCn3nc(-c4ncccc4F)cc3C2)cn1` [Example 159], for which the EC50 amounted to 92 nM and the Emax came out at 64%.
Regarding `Fc1ccc(CN2CCn3nc(-c4ncccc4F)cc3C2)nc1` [Example 160], the EC50 stood at 111 nM and the Emax came out at 53%.
For the compound `Cc1cccc(CN2CCn3nc(-c4ncccc4F)cc3C2)n1` [Example 161], the EC50 was determined as 26 nM and the Emax was determined as 74%.
For `Fc1cccnc1-c1cc2n(n1)CCN(Cc1ccc(C(F)(F)F)nc1)C2` [Example 162], the EC50 turned out to be 59 nM and the Emax worked out at 62%.
With `Fc1cccnc1-c1cc2n(n1)CCN(Cc1ccc(C(F)(F)F)cn1)C2` [Example 163], the EC50 was found to be 55 nM and the Emax worked out at 57%.
`Cn1c(CN2CCn3nc(-c4ncccc4F)cc3C2)nc2ccccc21` [Example 164]: the EC50 was determined as 55 nM and the Emax stood at 64%.
`Fc1cccnc1-c1cc2n(n1)CCN(Cc1c[nH]c3ccccc13)C2` [Example 165]: the concentration for a half-maximal effect (EC50) worked out at 22 nM and the Emax stood at 65%.
Take `Cn1cc(CN2CCn3nc(-c4ncccc4F)cc3C2)c2ccccc21` [Example 166]: the EC50 is 44 nM and the Emax was 85%.
In the case of `Cn1nc(CN2CCn3nc(-c4ncccc4F)cc3C2)c2ccccc21` [Example 167], the half-maximal effective concentration (EC50) came to 17 nM and the Emax was found to be 69%.
As to `Cn1nc2ccccc2c1CN1CCn2nc(-c3ncccc3F)cc2C1` [Example 168], the EC50 was found to be 82 nM and the Emax was 65%.
For `Fc1ccc(CN2CCn3nc(-c4ncccc4F)cc3C2)cn1` [Example 169], the EC50 was 51 nM and the Emax came out at 80%.
For the compound `Cc1ncc(CN2CCn3nc(-c4ncccc4C)cc3C2)cn1` [Example 170], the EC50 amounted to 152 nM and the Emax turned out to be 48%.

In general, EC50 refers to the midpoint of the concentration-response curve.
